Assay results taken from PMC5994430, “Mitochondrial Delivery of Phenol Substructure Triggers Mitochondrial Depolarization and Apoptosis of Cancer Cells” (Frontiers in Pharmacology, 2018).

Assays:
mitochondrial ATP = test: Mitochondrial ATP in A549 cells; type: cell-based, Human; details: 0.1 μM, 4 h
Description: The amount of ATP was measured on 20 μg of mitochondrial extracts with the ATP Bioluminescent Assay Kit (FL-AA, Sigma Chemical Co.). Data were converted into nmoles/mg mitochondrial proteins, using a calibration curve previously set.
(§1) [t] Continuedof three experiments with similar results. (D) Confocal analysis of mitochondrial staining with MitoTracker® Green FM. Magnification: 60 × objective (0.52 numerical aperture); 10 × ocular lens. Bar: 10 μM. The micrographs are representative of three experiments with similar results. (E,F) The electron transport was measured spectrophotometrically in duplicates. ATP levels in mitochondrial extracts was measured by a chemiluminescence-based assay, in duplicates. Data are means ± SD (n = 3). For both panels: ^∗p < 0.001 vs. A549 ctrl cells; °p < 0.001 for BEAS-2B cells vs. the corresponding condition in A549 cells. (G,H) ROS amount in mitochondrial extracts and mitochondrial damage were measured fluorimetrically, in duplicates. Data are means ± SD (n = 3). For both panels: ^∗p < 0.001 vs. A549 ctrl cells; °p < 0.001 for BEAS-2B cells vs. the corresponding condition in A549 cells. There were no statistically significant differences between untreated (ctrl) and compound 1/compound 2-treated BEAS-2B cells for all the parameters analyzed in this figure.

caspase 9 [1] = test: Caspase 9 activity in A549 cell lysates; type: cell-based, Human; details: 0.1 μM, 24 h
Description: (§2) The activity of caspase 9 and 3 was measured by incubating 20 μg cell lysates with the respective fluorogenic substrates Ac-LEHD-AMC (LEHD-AMC) or DEVD-AMC (DEVD-AMC), as reported ([Pinzón-Daza et al., 2012]). Results were expressed as nmoles AMC/mg protein.
(§3) FIGURE 7 Effects of phenol TPP-derivatives on mitochondria-dependent apoptosis. A549 and BEAS-2B cells were incubated 24 h in fresh medium (ctrl) or in medium containing 0.1 μM of 1 or 2. (A,B) The activity of caspase 9 and 3 was measured fluorimetrically, in duplicates. Data are means ± SD (n = 3). For both panels: ^∗p < 0.001 vs. A549 ctrl cells; °p < 0.001 for BEAS-2B cells vs. the corresponding condition in A549 cells. (C,D) Cell cycle distribution, measured in duplicates. Data are means ± SD (n = 3). For both panels: ^∗p < 0.001 vs. A549 ctrl cells: °p < 0.001 for BEAS-2B cells vs. the corresponding condition in A549 cells. (E) Bright field microscope analysis of cells. Magnification: 60 × objective (0.52 numerical aperture); 10 × ocular lens. Bar: 20 μM. The micrographs are representative of three experiments with similar results.

[2] = test system: human cancer cell lines and normal cells; test: Cell viability, panel of cancer cell lines and normal cells; type: cell-based; details: for IC50: Homo sapiens, all cancer cell lines examined; for concentrations with cytotoxic activity: cancer cell lines in vitro
Source text: Human colon cancer HT29 cells, colon-derived normal fibroblast CCD-18Co cells, lung cancer A549 cells, normal human bronchial epithelial (immortalized with adenovirus 12-SV40 virus hybrid Ad12SV40) BEAS-2B cells, breast cancer MDA-MB-231 cells, normal breast epithelial MCF10A cells, human osteosarcoma U-2OS cells were purchased from ATCC (Manassas, VA, United States). Primary osteoblasts were generated as reported previously ([Buondonno et al., 2016]). HMM and HMC were primary cells stabilized in culture as described ([Aldieri et al., 2004]). The use of primary cells was approved by Ethical Committee of the San Luigi Gonzaga Hospital, Orbassano, (protocol #126/2016). All subjects gave written informed consent in accordance with the Declaration of Helsinki. Cells were maintained in medium supplemented with 10% v/v fetal bovine serum, 1% v/v penicillin-streptomycin, 1% v/v L-glutamine. Morphological analysis was performed with a bright field microscope (Leica Microsystems, Wetzlar, Germany). At least 5 fields/experimental condition were examined.
The extracellular release of LDH, considered an index of cell damage and necrosis, was measured spectrophotometrically, as reported ([Riganti et al., 2013b]). The extracellular medium was centrifuged at 12,000 × g for 15 min to pellet cellular debris, the cells were washed with fresh medium, detached with 0.01% trypsin/EDTA, re-suspended in 0.2 ml of 82.3 mM triethanolamine phosphate-HCl (pH 7.6), and sonicated on ice with two 10-sec bursts. LDH activity was measured in the extracellular medium and in the cell lysate: 50 μl of extracellular medium or 5 μl of cell lysate were incubated at 37°C with 5 mM NADH. The reaction was started by adding 20 mM pyruvic acid and was monitored for 6 min, measuring absorbance at 340 nm using a Synergy HT Multi-Detection Microplate Reader (Bio-Tek Instruments, Winoosky, MT, United States). The reaction kinetics were linear throughout the time of measurement. Both intracellular and extracellular enzyme activities were expressed as μmol NADH oxidized/min/dish. The results were expressed as percentage of extracellular LDH versus total (intracellular plus extracellular) LDH. Cell viability was measured by the neutral red staining method, as previously reported ([Riganti et al., 2015b]). The absorbance of untreated cells was considered as 100% viability; the results were expressed as percentage of viable cells versus untreated cells. IC50 was calculated with the CompuSyn software^1.
FIGURE 4 Effects of phenolic TPP-derivatives on the viability of cancer cell lines and normal cells. Cells were incubated 72 h in fresh medium (0) or with increasing concentrations (0.1, 1, and 10 μM) of 1 and 2. Cell viability was measured spectrophotometrically in quadruplicates. […]

[3] = test system: mitofusin 1 (MFN1) and mitofusin 2 (MFN2); test: qRT-PCR of mitofusin mRNA in BEAS-2B cells; type: cell-based, Human; details: 0.1 μM, 4 h
Description: Supplementary Figure 4 Effects of TPP-derivatives on mitofusin 1 and mitofusin 2 expression.
A549 and BEAS-2B cells were incubated 4 h in fresh medium (ctrl) or with 0.1 µM of 1 and 2.
Expression of mitofusin 1 (MFN1) and mitofusin 2 (MFN2) mRNA was evaluated by qRT-PCR in
triplicates. Data are means ± SD (n=3).
(1 picture or pasted object on this page, not shown here)

caspase 9 [4] = test: Caspase 9 activity in BEAS-2B cell lysates; type: cell-based, Human; details: 0.1 μM, 24 h
Description: as §2, §3

mitochondrial ROS [5] = test: Mitochondrial ROS (MitoSOX Red) in A549 cells; type: cell-based, Human; details: 0.1 μM, 4 h
Description: (§4) The amount of ROS in mitochondrial extracts was measured fluorimetrically by incubating cell suspension at 37°C for 10 min with 10 μM of MitoSOX Red probe (Invitrogen Life Technologies), as per manufacturer’s instructions. Results were expressed as nmoles/mg mitochondrial proteins, using a calibration curve previously set with serial dilution of H2O2.
as §1, with “= 3). […] There were” for “= 3). For both panels: ^∗p < 0.001 vs. A549 ctrl cells; °p < 0.001 for BEAS-2B cells vs. the corresponding condition in A549 cells. There were”

mitochondrial ROS [6] = test: Mitochondrial ROS (MitoSOX Red) in BEAS-2B cells; type: cell-based, Human; details: 0.1 μM, 4 h
Description: as §4
as §1, with “= 3). […] There were” for “= 3). For both panels: ^∗p < 0.001 vs. A549 ctrl cells; °p < 0.001 for BEAS-2B cells vs. the corresponding condition in A549 cells. There were”

caspase 3 = test: Caspase 3 activity in BEAS-2B cell lysates; type: cell-based, Human; details: 0.1 μM, 24 h
Description: as §2, §3

PGC-1α = test: Immunoblot of nuclear PGC-1α in BEAS-2B cells; type: cell-based, Human; details: 0.1 μM, 4 h

Row | SMILES | amount of mitochondrial ATP (mitochondrial ATP) | activity of caspase 9 (caspase 9 [1]) | IC50 [2] [µM] | concentrations with cytotoxic activity [2] [µM] | expression of mitofusin 1 (MFN1) and mitofusin 2 (MFN2) [3] | activity of caspase 9 (caspase 9 [4]) | mitochondrial ROS (mitochondrial ROS [5]) | mitochondrial ROS (mitochondrial ROS [6]) | activity of caspase 3 (caspase 3) | nuclear level of PGC-1α (PGC-1α)
1 | CC(=O)Oc1ccc(C[P+](c2ccccc2)(c2ccccc2)c2ccccc2)cc1.[Br-] [Compound 1] | significant decrease | strong activation | < 10 | 0.1 to 1 | no changes | remained similar to untreated cells | acutely increased | negligible modifications | remained similar to untreated cells | unaffected
2 | O=C(Oc1ccc(C[P+](c2ccccc2)(c2ccccc2)c2ccccc2)cc1C(F)(F)F)c1ccccc1.[Br-] [Compound 2] | significant decrease | strong activation | < 10 | 0.1 to 1 | no changes | remained similar to untreated cells | acutely increased | negligible modifications | remained similar to untreated cells | unaffected
